The record followed here is patent US20090247548A1, “PYRROLOPYRIMIDINE DERIVATIVES FOR TREATING PROLIFERATIVE DISEASES” (priority 2004, published 2009).

One may read the melting point as the temperature of the solid-liquid transition. As to `C[C@@H](Nc1ncnc2[nH]c(-c3ccc(CN4CCNCC4)cc3)cc12)c1ccccc1` [Example 1, ((R)-1-Phenyl-ethyl)-[6-(4-piperazin-1-ylmethyl-phenyl)-7H-pyrrolo[2,3-d]pyrimidin-4-yl]-amine], the melting point was 240 to 242 °C.
